The values below are quoted from earlier work in patent US7590494B1, “Drug design based on the structure of LTA4 hydrolase” (priority 1999, dated 2009).

The series addresses T1, LTA4 hydrolase (Homo sapiens, UniProt P09960).
T1 sequence (P09960 1-611): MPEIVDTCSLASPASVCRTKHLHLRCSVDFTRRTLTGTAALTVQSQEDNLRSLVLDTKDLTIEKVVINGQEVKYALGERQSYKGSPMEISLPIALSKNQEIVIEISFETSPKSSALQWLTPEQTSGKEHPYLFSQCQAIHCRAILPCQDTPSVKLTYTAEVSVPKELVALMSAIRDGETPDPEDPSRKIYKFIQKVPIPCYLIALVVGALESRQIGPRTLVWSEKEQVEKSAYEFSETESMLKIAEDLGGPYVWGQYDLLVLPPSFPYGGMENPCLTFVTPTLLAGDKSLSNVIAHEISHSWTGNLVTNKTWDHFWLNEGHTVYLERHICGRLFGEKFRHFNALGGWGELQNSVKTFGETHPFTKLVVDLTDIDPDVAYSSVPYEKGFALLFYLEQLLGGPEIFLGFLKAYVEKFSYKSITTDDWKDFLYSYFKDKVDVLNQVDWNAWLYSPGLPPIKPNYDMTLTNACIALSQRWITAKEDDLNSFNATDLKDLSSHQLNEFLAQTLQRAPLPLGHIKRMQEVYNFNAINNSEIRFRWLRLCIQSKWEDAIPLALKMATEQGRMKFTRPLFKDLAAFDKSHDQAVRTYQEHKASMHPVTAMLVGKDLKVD
To be noted: qualitative statement from Örning et al. 1991.

Consider `CC(C)C[C@H](NC(=O)[C@@H](O)[C@H](N)Cc1ccccc1)C(=O)O` [bestatin], for which the “inhibition of LTA4 hydrolase” value was “inhibited”.
In the case of `C[C@H](CS)C(=O)N1CCC[C@H]1C(=O)O` [captopril], the “inhibition of LTA4 hydrolase” value is “inhibited”.
